Patent US20260191858A1, “COMBINATION THERAPIES” (Kallyope, Inc., priority 2022, published 2026)

What follows are compounds tested against T1, human GPR119 (hGPR119) (Homo sapiens, UniProt Q8TDV5) (assay: cAMP accumulation assay in CHO-K1 cells stably expressing hGPR119). Conditions: cAMP HTRF, 60 minutes.
T1 construct: expressed in transfected cells; host or cells: CHO-K1
T1 sequence (Q8TDV5 1-335): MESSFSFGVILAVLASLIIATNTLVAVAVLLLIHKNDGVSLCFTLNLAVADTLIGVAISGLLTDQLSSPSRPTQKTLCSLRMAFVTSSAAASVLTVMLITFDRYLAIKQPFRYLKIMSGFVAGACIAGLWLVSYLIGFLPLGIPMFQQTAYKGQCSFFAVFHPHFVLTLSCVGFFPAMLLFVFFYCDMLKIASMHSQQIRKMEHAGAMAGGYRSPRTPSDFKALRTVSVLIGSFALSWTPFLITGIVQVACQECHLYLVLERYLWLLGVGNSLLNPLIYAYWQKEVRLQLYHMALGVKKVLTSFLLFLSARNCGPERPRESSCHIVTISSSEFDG
Type: cell-based
Experimental: CHO-K1 cells stably expressing human GPR119 (hGPR119) were prepared by transfection of a GPR119-carrying plasmid using Lipofectamine 2000 (following manufacturer instructions). A stable cell line was established using the limiting dilution method with geneticine selection. Assay-ready frozen (ARF) cells were prepared and used throughout the study.
The assay was performed in a 384-well plate format using the CAMP Gs dynamic assay kit from Cisbio. ARF cells expressing hGPR119 were thawed, washed and then resuspended in CAMP stimulation buffer at a cell density of 1.1×10^6 cells/mL. Cells were plated at a density of ~10,000 cells/well (9 μL/well). Dose response curves for the tested compounds were prepared in a cAMP stimulation buffer, containing 0.1% Tween 80 at 4 fold the final concentration. The compounds were then transferred to the cell plates using BRAVO (3 μL/well) and the plates were incubated for 60 minutes at 37° C./5% CO2. Detection buffer (10 μL, prepared as described in the CAMP Gs dynamic kit) were added to each well, and the plates were incubated at ambient temperature for 1 hr.
RT-FRET was measured using a ClarioSTAR plate reader, calculating the ratio between emissions at 665 nm and 620 nm (HTRF ratio). The HTRF ratio for positive (Max) and negative (Min) controls were used to normalize HTRF data and generate values for % activity. EC50 and Max activity values were determined using a standard 4-parameter fit.

“1-[2-[2-fluoro-4-[3-[1-[5- (methoxymethyl)pyrimidin-2-yl]-4- piperidyl]propoxy]phenyl]acetyl]-N-[2-[2- hydroxy-1,1- bis(hydroxymethyl)ethyl]carbamoylamino] ethyl]azetidine-3-carboxamide [Compound A2]” and `O=C(NCCO[C@H]1O[C@H](CO)[C@@H](O)[C@H](O)[C@@H]1O)C1CN(C(=O)Cc2ccc(OCCCC3CCN(c4ncc(Cl)cn4)CC3)cc2F)C1` (racemic) [Compound A6, 1-[2-[4-[3-[1-(5-chloropyrimidin-2-yl)-4-piperidyl]propoxy]-2-fluoro-phenyl]acetyl]-N-[2-[rac-(2S,3S,4S,5S,6R)-3,4,5-trihydroxy-6-(hydroxymethyl)tetrahydropyran-2-yl]oxyethyl]azetidine-3-carboxamide] fall in the same range of EC50: 100 to 1000 nM for the first, 100 to 1000 nM for the second.

`O=C(NC[C@H](O)[C@@H](O)[C@H](O)[C@H](O)CO)C1CN(C(=O)Cc2ccc(OCCCC3CCN(c4ncc(Cl)cn4)CC3)cc2F)C1` (racemic) [Compound A10, 1-[2-[4-[3-[1-(5-chloropyrimidin-2-yl)-4-piperidyl]propoxy]-2-fluoro-phenyl]acetyl]-N-[rac-(2S,3R,4R,5R)-2,3,4,5,6-pentahydroxyhexyl]azetidine-3-carboxamide] and `O=C(CC1CN(C(=O)Cc2ccc(OCCCC3CCN(c4ncc(Cl)cn4)CC3)cc2F)C1)NC[C@H](O)[C@@H](O)[C@H](O)[C@H](O)CO` (racemic) [Compound A11, 2-[1-[2-[4-[3-[1-(5-chloropyrimidin-2-yl)-4-piperidyl]propoxy]-2-fluoro-phenyl]acetyl]azetidin-3-yl]-N-[rac-(2S,3R,4R,5R)-2,3,4,5,6-pentahydroxyhexyl]acetamide] fall in the same range of EC50: 100 to 1000 nM for the first, 100 to 1000 nM for the second.

`COCc1cnc(N2CCC(CCCOc3ccc(CC(=O)N4CC(C(=O)NC[C@H](O)[C@@H](O)[C@H](O)[C@H](O)CO)C4)c(F)c3)CC2)nc1` (racemic) [Compound A12, 1-[2-[2-fluoro-4-[3-[1-[5-(methoxymethyl)pyrimidin-2-yl]-4-piperidyl]propoxy]phenyl]acetyl]-N-[rac-(2S,3R,4R,5R)-2,3,4,5,6-pentahydroxyhexyl]azetidine-3-carboxamide] and `O=C(Cc1ccc(OCCCC2CCN(c3ncc(Cl)cn3)CC2)cc1F)N1CC(CN[C@@H]2C[C@H](O)[C@@H](O)[C@H]2O)C1` (racemic) [Compound A21, 2-[4-[3-[1-(5-chloropyrimidin-2-yl)-4-piperidyl]propoxy]-2-fluoro-phenyl]-1-[3-[[[rac-(1R,2S,3R,4S)-2,3,4-trihydroxycyclopentyl]amino]methyl]azetidin-1-yl]ethanone] fall in the same range of EC50: 100 to 1000 nM for the first, 100 to 1000 nM for the second.

`COc1cnc(N2CCC(CCCOc3ccc(CC(=O)N4CC(CNC[C@H](O)[C@@H](O)[C@H](O)[C@H](O)CO)C4)c(F)c3)CC2)nc1` (racemic) [Compound A49, 2-[2-fluoro-4-[3-[1-(5-methoxypyrimidin-2-yl)-4-piperidyl]propoxy]phenyl]-1-[3-[rac-(2S,3R,4R,5R)-2,3,4,5,6-pentahydroxyhexyl]amino]methyl]azetidin-1-yl]ethanone] and `CCOc1cnc(N2CCC(CCCOc3ccc(CC(=O)N4CC(CNC[C@H](O)[C@@H](O)[C@H](O)[C@H](O)CO)C4)c(F)c3)CC2)nc1` (racemic) [Compound A50, 2-[4-[3-[1-(5-ethoxypyrimidin-2-yl)-4-piperidyl]propoxy]-2-fluoro-phenyl]-1-[3-[[[rac-(2S,3R,4R,5R)-2,3,4,5,6-pentahydroxyhexyl]amino]methyl]azetidin-1-yl]ethanone] fall in the same range of EC50: 100 to 1000 nM for the first, 100 to 1000 nM for the second.

`O=C(Cc1ccc(OCCCC2CCN(c3ncc(Cl)cn3)CC2)cc1F)N1CC(CN2C[C@H](O)[C@@H](O)C2)C1` (stereo in doubt) [Compound A18, 2-[4-[3-[1-(5-chloropyrimidin-2-yl)-4-piperidyl]propoxy]-2-fluoro-phenyl]-1-[3-[[rac-(3S,4S)-3,4-dihydroxypyrrolidin-1-yl]methyl]azetidin-1-yl]ethanone] and `O=C(Cc1ccc(OCCCC2CCN(c3ncc(Cl)cn3)CC2)cc1F)N1CC(CN2C[C@@H](O)[C@H](O)C2)C1` (stereo in doubt) [Compound A19, 2-[4-[3-[1-(5-chloropyrimidin-2-yl)-4-piperidyl]propoxy]-2-fluoro-phenyl]-1-[3-[[rac-(3R,4R)-3,4-dihydroxypyrrolidin-1-yl]methyl]azetidin-1-yl]ethanone] cannot be ordered by EC50: at most 100 nM for the first, at most 100 nM for the second.

`O=C(NC(CO)(CO)CO)C1CN(C(=O)Cc2c(F)cc(OCCCC3CCN(c4ncc(Cl)cn4)CC3)cc2F)C1` [Compound A1, 1-[2-[4-[3-[1-(5-chloropyrimidin-2-yl)-4-piperidyl]propoxy]-2,6-difluoro-phenyl]acetyl]-N-[2-hydroxy-1,1-bis(hydroxymethyl)ethyl]azetidine-3-carboxamide] and `O=C(NC(CO)CO)C1CN(C(=O)Cc2ccc(OCCCC3CCN(c4ncc(Cl)cn4)CC3)cc2F)C1` [Compound A3, 1-[2-[4-[3-[1-(5-chloropyrimidin-2-yl)-4-piperidyl]propoxy]-2-fluoro-phenyl]acetyl]-N-[2-hydroxy-1-(hydroxymethyl)ethyl]azetidine-3-carboxamide] cannot be ordered by EC50: at most 100 nM for the first, 100 to 1000 nM for the second.

`O=C(NC(CO)(CO)CO)C1CN(C(=O)Cc2ccc(OCCCC3CCN(c4ncc(Cl)cn4)CC3)cc2F)C1` [Compound A4, 1-[2-[4-[3-[1-(5-chloropyrimidin-2-yl)-4-piperidyl]propoxy]-2-fluoro-phenyl]acetyl]-N-[2-hydroxy-1,1-bis(hydroxymethyl)ethyl]azetidine-3-carboxamide] and `O=C(NCC(O)(CO)CO)C1CN(C(=O)Cc2ccc(OCCCC3CCN(c4ncc(Cl)cn4)CC3)cc2F)C1` [Compound A5, 1-[2-[4-[3-[1-(5-chloropyrimidin-2-yl)-4-piperidyl]propoxy]-2-fluoro-phenyl]acetyl]-N-[2,3-dihydroxy-2-(hydroxymethyl)propyl]azetidine-3-carboxamide] cannot be ordered by EC50: at most 100 nM for the first, at most 100 nM for the second.

`O=C(CC1CN(C(=O)Cc2ccc(OCCCC3CCN(c4ncc(Cl)cn4)CC3)cc2F)C1)NC(CO)(CO)CO` [Compound A7, 2-[1-[2-[4-[3-[1-(5-chloropyrimidin-2-yl)-4-piperidyl]propoxy]-2-fluoro-phenyl]acetyl]azetidin-3-yl]-N-[2-hydroxy-1,1-bis(hydroxymethyl)ethyl]acetamide] and `O=C(CC1CN(C(=O)Cc2ccc(OCCCC3CCN(c4ncc(Cl)cn4)CC3)cc2F)C1)NCC(O)(CO)CO` [Compound A8, 2-[1-[2-[4-[3-[1-(5-chloropyrimidin-2-yl)-4-piperidyl]propoxy]-2-fluoro-phenyl]acetyl]azetidin-3-yl]-N-[2,3-dihydroxy-2-(hydroxymethyl)propyl]acetamide] fall in the same range of EC50: 100 to 1000 nM for the first, 100 to 1000 nM for the second.

`O=C(CC1CN(C(=O)Cc2c(F)cc(OCCCC3CCN(c4ncc(Cl)cn4)CC3)cc2F)C1)NCC(O)(CO)CO` [Compound A9, 2-[1-[2-[4-[3-[1-(5-chloropyrimidin-2-yl)-4-piperidyl]propoxy]-2,6-difluoro-phenyl]acetyl]azetidin-3-yl]-N-[2,3-dihydroxy-2-(hydroxymethyl)propyl]acetamide] and `O=C(Cc1ccc(OCCCC2CCN(c3ncc(Cl)cn3)CC2)cc1F)N1CC(CNC[C@H](O)[C@@H](O)[C@H](O)[C@H](O)CO)C1` [Compound A14, 2-[4-[3-[1-(5-chloropyrimidin-2-yl)-4-piperidyl]propoxy]-2-fluoro-phenyl]-1-[3-[[[(2S,3R,4R,5R)-2,3,4,5,6-pentahydroxyhexyl]amino]methyl]azetidin-1-yl]ethanone] cannot be ordered by EC50: at most 100 nM for the first, 100 to 1000 nM for the second.

`O=C(Cc1ccc(OCCCC2CCN(c3ncc(Cl)cn3)CC2)cc1F)N1CC(CNCC(O)(CO)CO)C1` [Compound A15, 2-[4-[3-[1-(5-chloropyrimidin-2-yl)-4-piperidyl]propoxy]-2-fluoro-phenyl]-1-[3-[[[2,3-dihydroxy-2-(hydroxymethyl)propyl]amino]methyl]azetidin-1-yl]ethanone] and `O=C(Cc1ccc(OCCCC2CCN(c3ncc(Cl)cn3)CC2)cc1F)N1CC(CNC(CO)(CO)CO)C1` [Compound A16, 2-[4-[3-[1-(5-chloropyrimidin-2-yl)-4-piperidyl]propoxy]-2-fluoro-phenyl]-1-[3-[[[2-hydroxy-1,1-bis(hydroxymethyl)ethyl]amino]methyl]azetidin-1-yl]ethanone] cannot be ordered by EC50: at most 100 nM for the first, at most 100 nM for the second.

`O=C(Cc1ccc(OCCCC2CCN(c3ncc(Cl)cn3)CC2)cc1F)N1CC(CNCC(CO)CO)C1` [Compound A17] and `O=C(Cc1ccc(OCCCC2CCN(c3ncc(Cl)cn3)CC2)cc1F)N1CC(CN2C[C@@H](O)[C@@H](O)C2)C1` [Compound A20, 2-[4-[3-[1-(5-chloropyrimidin-2-yl)-4-piperidyl]propoxy]-2-fluoro-phenyl]-1-[3-[rac-(3S,4R)-3,4-dihydroxypyrrolidin-1-yl]methyl]azetidin-1-yl]ethanone] cannot be ordered by EC50: at most 100 nM for the first, at most 100 nM for the second.
